Measured values: patent US20090203577A1 (EXELIXIS, INC., priority 2005, published 2009)

Legend:
[1] = tested on: patients with hypertriglyceridemia; conditions: cited from earlier work
[2] = tested on: male LDLR−/− mice; test: Compound effects in diet-induced hyperlipidemic LDLR-/- mice (plasma triglyceride and cholesterol); format: in vivo, mouse
Procedure: Young adult male mice (˜8 weeks of age) were purchased from conventional vendors and group housed (3-4/cage) with ad libitum access to chow and water, in a temperature- and light-controlled vivarium (lights on at 06:00 hours, off at 18:00 hours). Compounds were administered daily by oral gavage in the morning (˜08:00 hrs), in a final volume of 0.1 ml/mouse, with the first dose of compound delivered on study day 0. Compounds were solubilized by gentle mixing in PEG400:Tween80 (4:1) for at least several hours and usually overnight prior to initiation of dosing. When necessary, solutions were sonicated briefly to ensure complete compound solubilization.
Blood samples (˜0.15 ml/mouse) were obtained from the retro-orbital sinus of non-fasted isoflurane-anesthetized mice, 3 hours after drug dosing. Blood samples were collected into heparin-coated tubes, and plasma was recovered following centrifugation. Plasma total cholesterol and triglyceride levels were determined by […] enzymatic commercially available assays that were adapted to 96-well plate formats. Plasma HDL cholesterol (HDL-C) was determined by removing non-HDL-C from the plasma with a precipitating reagent, and then determining the plasma cholesterol levels in the remaining HDL-C fraction. Plasma triglycerides concentrations, determined from a blood sample obtained in the 24 hours prior to the first dose, were used to group the mice such that the pre-study triglyceride levels between groups were equivalent prior to initiation of the dosing regimen.
Male LDLR^−/− mice (JAX Mice, Bar Harbor, Me.) consumed a purified “Western” diet (˜21% fat, 0.02% cholesterol w/w) ad libitum, for two weeks prior to and during treatment with Compound C daily by oral gavage at a dose of 10 mg/kg/day for 7 days (n=9-10/group).
In a separate study utilizing the same mouse model ([…]) subjected to the dietary lead-in for 8 weeks, LDLR^−/− mice were treated with Compound B at a dose of 10 mg/kg/day for 6 weeks.

[3] = Western diet 8 weeks lead-in, 10 mg/kg/day for 6 weeks

C[C@H](CCC(=O)O)[C@H]1CC[C@H]2[C@@H]3[C@H](O)C[C@@H]4C[C@H](O)CC[C@]4(C)[C@H]3CC[C@]12C [CDCA, chenodeoxycholic acid]
plasma triglyceride levels [1]: significantly lowers

CCOC(=O)C1=CN(C(=O)c2ccc(F)c(F)c2)CC(C)(C)c2c1[nH]c1ccccc21 [Compound B, Ethyl 3-(3,4-difluorobenzoyl)-1,1-dimethyl-1,2,3,6-tetrahydro-azepino[4,5-b]indole-5-carboxylate]
plasma cholesterol concentrations [2, 3]: lowered
plasma triglyceride concentrations [2, 3]: lowered

CC(C)OC(=O)C1=CN(C(=O)c2ccc(F)c(F)c2)CC(C)(C)c2c1[nH]c1ccccc21 [Compound C, isopropyl 3-(3,4-difluorobenzoyl)-1,1-dimethyl-1,2,3,6-tetrahydroazepino[4,5-b]indole-5-carboxylate]
plasma triglyceride concentrations ([2]; Western diet 2 weeks lead-in, 10 mg/kg/day oral gavage, study day 7): reduced plasma triglyceride concentrations to the level observed prior to introduction of the high-fat chow
lowering of plasma total cholesterol levels ([2]; Western diet 2 weeks lead-in, 10 mg/kg/day oral gavage, study day 7, p<0.05 vs. vehicle): ~40%
plasma lipid profiles ([2]; daily dosing throughout the 6 weeks of study, continued Western diet): sustained normalization
